From patent US20140228287A1, “1-[(3-CYANO-PYRIDIN-2-YL)METHYL]-3-METHYL-7-(2-BUTYN-1-YL)-8-[3-(R)-AMINO-PIPERIDIN-1-YL]-AXANTHINE FOR THE TREATMENT OF A METABOLIC DISORDER OF A PREDOMINANTLY CARNIVOROUS NON-HUMAN ANIMAL” (BOEHRINGER INGELHEIM VETMEDICA GMBH, priority 2010, published 2014)
Where a name gives a salt, the structure may show the parent alone. Read-outs that look alike come from different tables or passages of the source.

Key:
[1] = system: normoglycaemic C57B1/6J mice; experiment: Oral glucose tolerance test (acute and delayed) in normoglycaemic mice; type: in vivo, mouse; details: for ED50: Mus musculus, po, read-out: ED50 for lowering the glucose AUC
Description: The effect of 1-[(3-cyano-pyridin-2-yl)methyl]-3-methyl-7-(2-butyn-1-yl)-8-[3-(R)-amino-piperidin-1-yl]-xanthine on glucose tolerance in normoglycaemic C57B1/6J mice was assessed according to the following protocol of an oral glucose tolerance test (OGTT).
Male C57B1/6J mice (C57BL/6J@Rj) were obtained from Janvier (France). Animals were fed ad libitum with a standard pelleted diet (Diet No. 3438 [containing 19% protein, 4.5% fat], Provimi Kliba, Switzerland) and had free access to water. Animals were individually housed with a 12 h/12 h light/dark cycle (lights out between 6 p.m. and 6 a.m.). The mice were used for the experiments at 9 weeks of age.
For the determination of the acute oral glucose tolerance test, a basal blood sample (pre-dose) was obtained in the morning from overnight fasted C57B1/6J mice (n=7 per group) by cutting the tip of the tail without anaesthesia. Subsequently, the groups received a single oral administration of either vehicle or 1-[(3-cyano-pyridin-2-yl)methyl]-3-methyl-7-(2-butyn-1-yl)-8-[3-(R)-amino-piperidin-1-yl]-xanthine monohydrochloride at doses between 0.1 and 10 mg/kg bw, followed 45 min later by an oral administration of a glucose solution (2 g/kg bw, application volume 10 ml/kg bw). Additional blood samples were taken from the tip of the tail 30 min, 60 min, 90 min, 120 min, and 180 min after the glucose load, and blood glucose was measured. A final blood sample was drawn from the retrobulbal venous plexus under isoflurane anaesthesia 30 minutes after the last bleeding from the tail. EDTA plasma was prepared from this blood sample and frozen for determination of DPP-IV activity.
For the determination of the delayed oral glucose tolerance test, C57B1/6J mice (n=5 per group) were orally administered with either vehicle or 1-[(3-cyano-pyridin-2-yl)methyl]-3-methyl-7-(2-butyn-1-yl)-8-[3-(R)-amino-piperidin-1-yl]-xanthine monohydrochloride at doses between 0.1 and 10 mg/kg bw in the afternoon before the oral glucose tolerance test. […] Additional blood samples were taken from the tip of the tail 30 min, 60 min, 90 min, 120 min, and 180 min after the glucose load, and blood glucose was measured. […]
The two-sided unpaired Student t-test was used for statistical comparison of the control group and the active groups with the 5% level as the limit of statistical significance (*, P <0.05; **, P<0.01; ***, P<0.001). […] Changes from baseline (pre-dose value) within each group were analyzed by a paired Student t-test.
The area under the curve (AUC) for the time course of blood glucose concentrations during an OGTT was calculated by the trapezoidal rule after correction for the baseline values.
ED50 values were calculated by nonlinear regression analysis with a Hill coefficient of 1. […]

[2] = system: plasma DPP IV; experiment: Plasma DPP IV activity after oral administration, Rhesus monkey; type: in vivo; details: 1 mg/kg oral, 24 hours post dose
Description: The effect of 1-[(3-cyano-pyridin-2-yl)methyl]-3-methyl-7-(2-butyn-1-yl)-8-[3-(R)-amino-piperidin-1-yl]-xanthine on plasma DPP IV activity after oral administration was investigated in the rat, the Beagle dog and the Rhesus monkey. These investigations were conducted as described in the following.
Overnight fasted Rhesus monkeys (n=4; 2 males and 2 females) were administered oral doses of 1-[(3-cyano-pyridin-2-yl)methyl]-3-methyl-7-(2-butyn-1-yl)-8-[3-(R)-amino-piperidin-1-yl]-xanthine monohydrochloride at 1 mg/kg bw. Blood samples were drawn from a butterfly that was inserted into a forearm vein of restrained monkeys. Blood was collected in EDTA tubes prior to administration of 1-[(3-cyano-pyridin-2-yl)methyl]-3-methyl-7-(2-butyn-1-yl)-8-[3-(R)-amino-piperidin-1-yl]-xanthine monohydrochloride and subsequently at 0.5, 1, 2, 4, 8, 24, 48, and 72 hour time points post dose. Plasma was prepared following blood collection and frozen for determination of DPP-IV activity.

[3] = system: insulin-resistant fa/fa rats; experiment: Delayed OGTT in insulin-resistant fa/fa rats; type: in vivo, rat; details: 3 mg/kg 16 h before OGTT
Description: Male Zucker Fatty (fa/fa) rats (Ico-Zucker-fa/fa (Orl)) were obtained from Iffa (France). Animals were fed ad libitum with a standard pelleted diet (Diet No. 3438, Provimi Kliba, Switzerland) and had free access to water. Animals were housed in groups with a 12 h/12 h light/dark cycle (lights out between 6 p.m. and 6 a.m.). The rats were used for the experiments between 7 and 12 weeks of age.
fa/fa rats (n=6 per group) were treated like the mice in Example 3, delayed OGTT. 1-[(3-cyano-pyridin-2-yl)methyl]-3-methyl-7-(2-butyn-1-yl)-8-[3-(R)-amino-piperidin-1-yl]-xanthine was dosed at 3 mg/kg 16 hours before the OGTT.
GLP-1 was measured using a commercially available GLP-1 (active) ELISA Kit (Catalog# EGLP-35K, Linco Research Inc., St. Charles/Mo., USA). Insulin was measured using a commercially available Rat Insulin ELISA Kit (Catalog#90060, Crystal Chem. Inc., Downers Grove/IL, USA).

## CC#CCn1c(N2CCC[C@@H](N)C2)nc2c1c(=O)n(Cc1ncccc1C#N)c(=O)n2C [1-[(3-cyano-pyridin-2-yl)methyl]-3-methyl-7-(2-butyn-1-yl)-8-[3-(R)-amino-piperidin-1-yl]-xanthine monohydrochloride]
[1]; 1 mg/kg 16 hours before OGTT (delayed setting)
  reduction of AUC for glucose excursion in OGTT: 29%
[1]; acute setting
  ED50: 0.2 mg/kg
[1]; delayed setting
  ED50: 0.3 mg/kg
[1]; acute dosing of 1 mg/kg
  suppression of AUC for glucose excursion in OGTT: 38%
[2]
  inhibition of plasma DPP IV activity: 54%
[3]
  GLP-1 levels vs. control group: elevated vs. the control group at all time points
  Glucose AUC 0-90 min, Change versus control, Mean Diff. %: −34.4%
  Glucose AUC 0-90 min, Mean: 177.00 mM·min
  Glucose AUC 0-90 min, Median: 165.00 mM·min
  peak plasma insulin levels compared to vehicle treatment: further elevations in peak plasma insulin levels
  reduction of area under the glucose excursion curve: 34.4%
  rise of GLP-1 levels vs. baseline after the glucose stimulus: 93%
[3]; 30 min
  Glucose, Change versus baseline, Mean Diff. %: 71.7%
  Glucose, Change versus control, Mean Diff. %: −29.0%
  Glucose, Mean: 7.90 mM
  Glucose, Median: 8.00 mM
[3]; 60 min
  Glucose, Change versus baseline, Mean Diff. %: 39.1%
  Glucose, Change versus control, Mean Diff. %: −23.0%
  Glucose, Mean: 6.40 mM
  Glucose, Median: 6.30 mM
[3]; 90 min
  Glucose, Change versus baseline, Mean Diff. %: 34.8%
  Glucose, Change versus control, Mean Diff. %: −2.1%
  Glucose, Mean: 6.20 mM
  Glucose, Median: 6.30 mM
[3]; 120 min
  Glucose, Change versus baseline, Mean Diff. %: 31.3%
  Glucose, Change versus control, Mean Diff. %: 5.7%
  Glucose, Mean: 6.04 mM
  Glucose, Median: 5.70 mM
[3]; 180 min
  Glucose, Change versus baseline, Mean Diff. %: 29.6%
  Glucose, Change versus control, Mean Diff. %: 13.2%
  Glucose, Mean: 5.96 mM
  Glucose, Median: 6.10 mM
[3]; Pre-load
  Glucose, Change versus control, Mean Diff. %: −15.6%
  Glucose, Mean: 4.60 mM
  Glucose, Median: 4.40 mM
